Assay [1] relates to Spt5 activities. Kind of assay: Combined effects on the various Spt5 activities (summary of Examples 1-4). The format is cell-based.
Assay [2] has as its system mutant (Q111) Htt. Kind of assay: Htt mRNA levels in Q111 striatal cells, qPCR. On Down-regulating transcription of Mutant Htt (i.e. inhibiting transcription elongation of mutant Htt gene induced by Spt5): key: + represent a statistically significant effect. In kind it is cell-based, mouse. The conditions noted are these: for effect on mutant (Q111) Htt mRNA expression, in words / Down-regulating transcription of Mutant Htt (i.e. inhibiting transcription elongation of mutant Htt gene induced by Spt5): 48 hours; for Down-regulating transcription of Mutant Htt (i.e. inhibiting transcription elongation of mutant Htt gene induced by Spt5): Q111 striatal cells. As for the experimental part:
(§1) Cell culture—HEK293T, HeLa, MCF7, Jurkat and mouse embryonic fibroblasts (MEFs) cells were grown and maintained in Dulbecco's modified Eagle's medium supplemented with 10% fetal calf serum (Gibco) and 1% penicillin-streptomycin. To avoid NF-κB activity, HeLa cells were kept from reaching confluence and re-plated no more than 10 times following initial thawing. To induce NF-κB activity, cells were treated with […] recombinant human TNF-α (Peprotech) for the indicated times. STHdh Q111 and STHdh Q7 striatal cell lines (Coriell Institute for Medical Research) were grown in Dulbecco's modified Eagle's medium supplemented with 10% fetal calf serum (Gibco), 1% penicillin-streptomycin and 0.4 mg/ml G418 at 33° C. The cells were re-plated no more than 5-6 times, as recommended.
Huntington's disease (HD) is an inherited genetic disorder caused by expansion trinucleotide CAG repeats (36 and higher) encoding glutamine (Q) in the huntingtin (Htt) gene. Expression of the mutant gene in neurons of the striatum and the frontal cortex leads to degeneration of neuronal cells that control body movements, emotions and intellect. […] To examine the potential effect of SPIs in this context, striatal cell lines established from wild type (Q7) or from mutant (Q111) Htt knock-in mice were used. In these cell lines the coding region of the first exon of the mouse Htt gene was replaced with the same region of human wild type (Q7) or mutant (Q111) Htt, as schematically shown in FIG. 6A. The two cell lines were treated for 48 hours with the identified SPIs and following the levels of Htt mRNA were determined.
The compounds were tested as described in Example 4 hereinabove. In brief, Q111 (or Q7, where indicated) expressing Striatal cells were treated with the tested compound at the indicated concentrations for 48 hours. Then, RNA was extracted and levels of Htt mRNA were determined by qRT-PCR and normalized to β-actin. The data was analysed using GraphPad Prism software.

Assay [3] concerns pro-inflammatory genes A20, CCL20, IL6, IL8, CXCL2, JUNB and IEX1. Kind of assay: mRNA levels of pro-inflammatory genes under TNFα-induced conditions, HeLa, RT-qPCR. The note with it: for Down-regulating transcription of pro-inflammatory genes under TNFα induced conditions (i.e. inhibiting transcription elongation of pro-inflammatory genes induced by Spt5): HeLa cells, SPI 1 hour then TNFα 1 hour; for effect on TNFα-induced levels of pro-inflammatory genes, in words: HeLa, SPI (50 μM or less) 1 hour then TNFα 1 hour. In kind it is cell-based, human. Here is the method:
as §1
(§2) RNA analysis—Total RNA was extracted using Tri-reagent (Bio-Lab Chemicals) and Direct-Zol™ RNA MiniPrep kit (Zymo Research). Following, cDNA was synthesized from […] of total RNA using a High-Capacity cDNA Reverse Transcription Kit (ABI, Thermo Fisher Scientific). cDNA samples were analyzed by quantitative PCR (qPCR) in a ViiA 7 Real-Time PCR System using Fast qPCRBIO SYBR Green Mix (PCR Biosystems).
In the next step, the effect of the identified SPIs on expression of the selected genes following NF-κB activation was analyzed. Specifically, Hela cells were pre-incubated with DMSO or SPI (50 μM or less) for 1 hour followed by treatment with TNFα for an additional 1 hour.

The test system is the same in assay [4]. Kind of assay: mRNA levels of pro-inflammatory genes under basal conditions, HeLa, RT-qPCR. The format is cell-based, human. The conditions noted are these: HeLa cells, 2 hours, 50 μM SPI. Here is the method: as §1, §2
Thus, a subset of Spt5-responsive pro-inflammatory genes from the aforementioned studies and from others (Aida et al., 2006; Fujita et al., 2009), namely A20, CCL20, IL6, IL8, CXCL2, JUNB and IEX1, were selected and the effect of the identified SPIs on their expression under basal conditions and in response to NF-κB activation was tested (FIGS. 2A-C and 3A-C). Specifically, for analyzing expression under basal conditions, Hela cells were treated with vehicle (DMSO) or SPI for 2 hours and following RNA was extracted and analyzed by RT-qPCR.

The values below come from patent US12661353B2, “SPT5 inhibitors and uses thereof” (Yeda Research and Development Co. Ltd., priority 2020, dated 2026).

“Also recorded” adds a separate entry of the source. Like-named read-outs stand apart in the source and are kept apart here.

Regarding `O=c1oc2cc(O)ccc2s1` [SPI-09], the “classification by effect on the various Spt5 activities, in words” value (shortened to “classification by effect”) in assay [1] was “little or no effect on basal and induced pro-inflammatory gene expression”. Moreover, the “classification by effect” value in assay [1] (listed as SPJ-09) is “a single activity as SPI inhibitors towards inhibiting transcription of Htt gene”. Further, in assay [2], the “effect on mutant (Q111) Htt mRNA expression, in words” value (“effect on mutant” below) is recorded as “diminished mutant Htt expression” and the “Down-regulating transcription of Mutant Htt (i.e. inhibiting transcription elongation of mutant Htt gene induced by Spt5)” value is “+”.

Regarding `N#CC(C#N)=CC=C(Sc1ncc(C(F)(F)F)cc1Cl)c1ccc(Cl)cc1` [SPI-16], the “classification by effect” value in assay [1] was “affected the basal and the TNFα-induced pro-inflammatory gene transcription”. Also, the “effect on mutant” value in assay [2] is “did not affect mutant Htt expression”. For the same compound, in assay [3], the “Down-regulating transcription of pro-inflammatory genes under TNFα induced conditions (i.e. inhibiting transcription elongation of pro-inflammatory genes induced by Spt5)” value was “+++ (+++ represent >80% inhibition)”. For the same compound, in assay [4], the “Up-regulation of pro-inflammatory genes under basal conditions (i.e. inhibiting proximal promoter pausing of pro-inflammatory genes induced by Spt5)” value is “++ (++ >3)”.

`CN(Cc1cnn(Cc2ccccc2)c1)c1ccc2nnc(-c3ccccc3)n2n1` [SPI-17]: the “classification by effect” value in assay [1] was “affected the basal and the TNFα-induced pro-inflammatory gene transcription”. Besides, the “effect on mutant” value in assay [2] is listed as “did not affect mutant Htt expression”. Besides, the “Down-regulating transcription of pro-inflammatory genes under TNFα induced conditions (i.e. inhibiting transcription elongation of pro-inflammatory genes induced by Spt5)” value in assay [3] is “+++ (+++ represent >80% inhibition)”. The “Up-regulation of pro-inflammatory genes under basal conditions (i.e. inhibiting proximal promoter pausing of pro-inflammatory genes induced by Spt5)” value in assay [4] was “+++ (+++ represent effect >10)”.

On to `O=C(/C=C/c1ccc(O)cc1)CC(=O)/C=C/c1ccc(O)cc1` [SPI-29], for which the “classification by effect” value in assay [1] is recorded as “affect all the tested Spt5 activities”. In addition, in assay [2], the “Down-regulating transcription of Mutant Htt (i.e. inhibiting transcription elongation of mutant Htt gene induced by Spt5)” value is “+”. Also, the “Down-regulating transcription of pro-inflammatory genes under TNFα induced conditions (i.e. inhibiting transcription elongation of pro-inflammatory genes induced by Spt5)” value in assay [3] is “+++ (+++ represent >80% inhibition)”. Besides, in assay [4], the “Up-regulation of pro-inflammatory genes under basal conditions (i.e. inhibiting proximal promoter pausing of pro-inflammatory genes induced by Spt5)” value is “++ (++ >3)”.

`CCc1ccccc1NS(=O)(=O)c1ccc(-n2ncc(Cl)c(Cl)c2=O)cc1` [SPI-31]: the “classification by effect” value in assay [1] is given as “inhibited mainly the positive activity of Spt5 with little or no effect on proximal promoter pausing; also recorded: a single activity as SPI inhibitors towards inhibiting transcription of Htt gene”. Moreover, in assay [2], the “effective concentration on mutant Htt lower than the concentration needed to inhibit expression of the pro-inflammatory genes” value was “about 15 fold”; the “effect on mutant” value is “efficacy in selectively inhibiting transcription of Htt gene”; the “Down-regulating transcription of Mutant Htt (i.e. inhibiting transcription elongation of mutant Htt gene induced by Spt5)” value is recorded as “+”. Further, in assay [3], the “Down-regulating transcription of pro-inflammatory genes under TNFα induced conditions (i.e. inhibiting transcription elongation of pro-inflammatory genes induced by Spt5)” value is on record as “+++ (+++ represent >80% inhibition)”.

For `CCN(CC)CCOc1ccc(C(=C(Cl)c2ccccc2)c2ccccc2)cc1` [SPI-42], in assay [1], the “classification by effect” value is “affected the basal and the TNFα-induced pro-inflammatory gene transcription”. Moreover, the “effect on mutant” value in assay [2] was “did not affect mutant Htt expression”. For the same compound, in assay [3], the “Down-regulating transcription of pro-inflammatory genes under TNFα induced conditions (i.e. inhibiting transcription elongation of pro-inflammatory genes induced by Spt5)” value is “++ (++ >65%)” and the “effect on TNFα-induced levels of pro-inflammatory genes, in words” value (“effect on TNFα-induced levels” below) is “affected mainly the genes that were strongly induced by the TNFα treatment”. Also, in assay [4], the “Up-regulation of pro-inflammatory genes under basal conditions (i.e. inhibiting proximal promoter pausing of pro-inflammatory genes induced by Spt5)” value is “+ (+ >1.6)”.

Take `O=C(O)c1ccc(C=C2CSc3c(F)cccc3C2=O)cc1` [SPI-46]: in assay [1], the “classification by effect” value was “affected the basal and the TNFα-induced pro-inflammatory gene transcription”. For the same compound, the “effect on mutant” value in assay [2] was “did not affect mutant Htt expression”. In addition, the “Down-regulating transcription of pro-inflammatory genes under TNFα induced conditions (i.e. inhibiting transcription elongation of pro-inflammatory genes induced by Spt5)” value in assay [3] was “+++ (+++ represent >80% inhibition)”. Also, in assay [4], the “Up-regulation of pro-inflammatory genes under basal conditions (i.e. inhibiting proximal promoter pausing of pro-inflammatory genes induced by Spt5)” value is given as “+ (+ >1.6)”.

For `OCc1ccc(-c2ccc(-c3ccc(CO)s3)o2)s1` [SPI-48], in assay [1], the “classification by effect” value is listed as “a single activity as SPI inhibitors towards inhibiting transcription of Htt gene”. In assay [2], the “Down-regulating transcription of Mutant Htt (i.e. inhibiting transcription elongation of mutant Htt gene induced by Spt5)” value was “+”.

Take `Cc1ccnc(SC=CC(=O)c2ccccc2)n1` [SPI-57]: the “classification by effect” value in assay [1] was “affected the basal and the TNFα-induced pro-inflammatory gene transcription”. Moreover, in assay [2], the “effect on mutant” value is listed as “did not affect mutant Htt expression”. The “Down-regulating transcription of pro-inflammatory genes under TNFα induced conditions (i.e. inhibiting transcription elongation of pro-inflammatory genes induced by Spt5)” value in assay [3] was “+++ (+++ represent >80% inhibition)”. The “Up-regulation of pro-inflammatory genes under basal conditions (i.e. inhibiting proximal promoter pausing of pro-inflammatory genes induced by Spt5)” value in assay [4] is given as “+ (+ >1.6)”.

Consider `O=C(O)c1ccc(C=C2CSc3ccc(F)cc3C2=O)cc1` [SPI-68], for which, in assay [2], the “Down-regulating transcription of Mutant Htt (i.e. inhibiting transcription elongation of mutant Htt gene induced by Spt5)” value is “+”. Besides, in assay [3], the “Down-regulating transcription of pro-inflammatory genes under TNFα induced conditions (i.e. inhibiting transcription elongation of pro-inflammatory genes induced by Spt5)” value is reported as “++ (++ >65%)” and the “effect on TNFα-induced levels” value was “affected mainly the genes that were strongly induced by the TNFα treatment”. In addition, the “Up-regulation of pro-inflammatory genes under basal conditions (i.e. inhibiting proximal promoter pausing of pro-inflammatory genes induced by Spt5)” value in assay [4] was “+ (+ >1.6)”.

As to `Nc1ccc2ncnc(NCCc3ccc(Oc4ccccc4)cc3)c2c1` [SPI-74], the “classification by effect” value in assay [1] is on record as “affect all the tested Spt5 activities”. Moreover, the “Down-regulating transcription of Mutant Htt (i.e. inhibiting transcription elongation of mutant Htt gene induced by Spt5)” value in assay [2] is “+”. In assay [3], the “Down-regulating transcription of pro-inflammatory genes under TNFα induced conditions (i.e. inhibiting transcription elongation of pro-inflammatory genes induced by Spt5)” value is on record as “++ (++ >65%)” and the “effect on TNFα-induced levels” value is reported as “affected mainly the genes that were strongly induced by the TNFα treatment”. For the same compound, in assay [4], the “Up-regulation of pro-inflammatory genes under basal conditions (i.e. inhibiting proximal promoter pausing of pro-inflammatory genes induced by Spt5)” value is listed as “+ (+ >1.6)”.

Regarding `CN(C)c1ccc(C2NCC(CSc3nc4ccccc4s3)O2)cc1` (centres unmarked) [SPI-85], the “classification by effect” value in assay [1] is “little or no effect on basal and induced pro-inflammatory gene expression”. For the same compound, the “classification by effect” value in assay [1] (listed as SPJ-85) is listed as “a single activity as SPI inhibitors towards inhibiting transcription of Htt gene”. Moreover, in assay [2], the “effect on mutant” value is reported as “diminished mutant Htt expression” and the “Down-regulating transcription of Mutant Htt (i.e. inhibiting transcription elongation of mutant Htt gene induced by Spt5)” value is on record as “+”.

Turning to `COc1ccc(C2=NCC(CSc3nc4cc(Cl)ccc4o3)S2)cc1` (centres unmarked) [SPI-0324], the “effect on mutant” value in assay [2] is reported as “efficacy in selectively inhibiting transcription of Htt gene”.

As to `CSc1ccccc1NS(=O)(=O)c1ccc(-n2ncc(Cl)c(Cl)c2=O)cc1` [SPI-1477], the “effect on mutant” value in assay [2] is “efficacy in selectively inhibiting transcription of Htt gene”.

For the compound `CCc1ccccc1NS(=O)(=O)c1ccc(-n2ncccc2=O)cc1` [SPI-4516K, N-(2-ethylphenyl)-4-(6-oxopyridazin-1(6H)-yl)benzenesulfonamide], the “effect on mutant” value in assay [2] is “efficacy in selectively inhibiting transcription of Htt gene”.

For `OCc1ccc(-c2ccc(-c3cccs3)s2)s1` [SPI-8108], the “effect on mutant” value in assay [2] was “efficacy in selectively inhibiting transcription of Htt gene”.
